The test system of data set [1] is Plasmodium falciparum. Briefly: Antimalarial activity against chloroquine-resistant Plasmodium falciparum W2 infected in RBC after 72 hrs by LDH release assay. Type of data set: functional, organism-based. The following applies: W2, 72 h. For orientation: LDH leaks from cells whose membrane has failed.
The test system of data set [2] is Plasmodium falciparum. Briefly: Antimalarial activity against chloroquine-sensitive Plasmodium falciparum D6 infected in RBC after 72 hrs by LDH release assay. The following applies: D6, 72 h. Type of data set: functional, organism-based.
In the next data set the test system is Vero. The data set is described as follows: Cytotoxicity against African green monkey Vero cells up to 10 uM after 48 hrs by neutral red assay. The format is cell-based. Particulars: chlorocebus sabaeus.
Data set [3] can be described thus: Selectivity index, ratio of IC50 for cytotoxicity against African green monkey Vero cells to IC50 for chloroquine-sensitive Plasmodium falciparum D6. The format is toxicity, cell-based. The following applies: read-out: Ratio IC50.
Data set [4] is described as follows: Selectivity index, ratio of IC50 for cytotoxicity against African green monkey Vero cells to IC50 for chloroquine-resistant Plasmodium falciparum W2. Type of data set: toxicity, cell-based. Particulars: read-out: Ratio IC50.

SMILES strings stand for the structures.

Take `Cc1cc(N(CCCNc2ccnc3cc(Cl)ccc23)Cc2ccccn2)nc(N2CCOCC2)n1`: the IC50 (usually the concentration that gives 50% inhibition) with Plasmodium falciparum [1] stood at 511 nM; in the data set with Plasmodium falciparum [2] it was 114 nM. Moreover, the Activity entry in the data set with Vero was “Non-Toxic”. Further, the selectivity ratio in data set [3] is more than 82.5; in data set [4] it was more than 18.5.

With `CCN1CCN(c2cc(C)nc(N(CCNc3ccnc4cc(Cl)ccc34)Cc3ccccn3)n2)CC1`, the half-inhibitory concentration (IC50) in the data set with Plasmodium falciparum [1] amounted to 39 nM; in the data set with Plasmodium falciparum [2], 34 nM. Further, the Activity entry in the data set with Vero is recorded as “Non-Toxic”. Besides, the selectivity ratio is more than 270 in data set [3] and more than 273 in data set [4].

Take `CCN(CC)CCCC(C)Nc1ccnc2cc(Cl)ccc12` (stereo not given) [CHLOROQUINE]: in the data set with Vero, the Activity result is recorded as “Non-Toxic”.

Take `Cc1cc(Cl)nc(N(CCNc2ccnc3cc(Cl)ccc23)Cc2ccccn2)n1`: the IC50 in the data set on Plasmodium falciparum [1] turned out to be 1010 nM; with Plasmodium falciparum [2], 369 nM. Further, the figures for the selectivity ratio in data set [3] and in data set [4] were 23.2 and 8.5, respectively.

`Cc1cc(N2CCN(C)CC2)nc(N(CCCNc2ccnc3cc(Cl)ccc23)Cc2cccs2)n1`: the IC50 with Plasmodium falciparum [1] turned out to be 19.9 nM; in the data set with Plasmodium falciparum [2], 38.9 nM. Also, the Activity entry with Vero is “Non-Toxic”. The selectivity ratio was more than 23.4 in data set [3] and more than 45.8 in data set [4].

On to `C[C@@H]1CC[C@H]2[C@@H](C)C(=O)O[C@@H]3O[C@@]4(C)CC[C@@H]1[C@]32OO4` [ARTEMISININ], for which the half-maximal inhibitory concentration (IC50) with Plasmodium falciparum [1] turned out to be 16.2 nM; with Plasmodium falciparum [2], 17.1 nM. For the same compound, the Activity result in the data set with Vero is “Non-Toxic”. For the same compound, the values for the selectivity ratio in data set [3] and in data set [4] were more than 49.2 and more than 52, respectively.

As to `Cc1cc(N2CCCC2)nc(N(CCCNc2ccnc3cc(Cl)ccc23)Cc2cccs2)n1`, the IC50 in the data set with Plasmodium falciparum [1] came out at 40.1 nM; in the data set on Plasmodium falciparum [2] it was 35.9 nM. Further, the Activity result in the data set with Vero is “Non-Toxic”. Besides, the selectivity ratio in data set [3] is more than 26.8; in data set [4], more than 24.

Regarding `Cc1cc(Cl)nc(N(CCCNc2ccnc3cc(Cl)ccc23)Cc2cccs2)n1`, the IC50 with Plasmodium falciparum [1] was 462 nM; in the data set on Plasmodium falciparum [2] it was 119 nM. For the same compound, in the data set with Vero, the Activity entry is “Non-Toxic”. The selectivity ratio in data set [3] was more than 87.2; in data set [4], more than 22.5.

On to `Cc1cc(N2CCOCC2)nc(N(CCCNc2ccnc3cc(Cl)ccc23)Cc2cccs2)n1`, for which the IC50 in the data set with Plasmodium falciparum [1] worked out at 542 nM; in the data set with Plasmodium falciparum [2], 55.8 nM. The Activity entry in the data set on Vero is “Non-Toxic”. Besides, the selectivity ratio in data set [3] is more than 167; in data set [4], more than 17.2.

On to `CCN1CCN(c2nc(C)cc(N(CCCNc3ccnc4cc(Cl)ccc34)Cc3cccs3)n2)CC1`, for which the IC50 in the data set on Plasmodium falciparum [1] was found to be 31.2 nM; in the data set with Plasmodium falciparum [2], 35.8 nM. The Activity result in the data set with Vero is on record as “Non-Toxic”. Moreover, the selectivity ratio in data set [3] was more than 24.8; in data set [4] it was more than 28.4.

Take `Cc1cc(N2CCCCC2)nc(N(CCCNc2ccnc3cc(Cl)ccc23)Cc2ccccn2)n1`: the values for the IC50 in the data set with Plasmodium falciparum [1] and in the data set with Plasmodium falciparum [2] were 945 nM and 1190 nM, respectively. Also, the Activity entry in the data set on Vero is “Non-Toxic”. Moreover, the selectivity ratio in data set [3] is more than 7.9; in data set [4], more than 10.

Turning to `CCN1CCN(c2nc(C)cc(N(CCCNc3ccnc4cc(Cl)ccc34)Cc3ccccn3)n2)CC1`, the figures for the half-inhibitory concentration (IC50) in the data set with Plasmodium falciparum [1] and in the data set with Plasmodium falciparum [2] were 137 nM and 28 nM, respectively. Also, in the data set on Vero, the Activity result is reported as “Non-Toxic”. For the same compound, the selectivity ratio in data set [3] is more than 321; in data set [4], more than 66.

For the compound `Cc1cc(N(CCCNc2ccnc3cc(Cl)ccc23)Cc2cccs2)nc(Cl)n1`, the IC50 in the data set with Plasmodium falciparum [1] came to 606 nM; in the data set on Plasmodium falciparum [2], 246 nM. Besides, the Activity result in the data set on Vero is recorded as “Non-Toxic”. The selectivity ratio in data set [3] is more than 42.2; in data set [4] it was more than 17.1.

For the compound `Cc1cc(N(CCCNc2ccnc3cc(Cl)ccc23)Cc2ccccn2)nc(N2CCCC2)n1`, the IC50 in the data set with Plasmodium falciparum [1] came out at 140 nM; with Plasmodium falciparum [2], 36 nM. Further, the Activity entry in the data set on Vero is given as “Non-Toxic”. In addition, the selectivity ratio in data set [3] was more than 274; in data set [4], more than 69.

For the compound `Cc1cc(N(CCCNc2ccnc3cc(Cl)ccc23)Cc2ccccn2)nc(Cl)n1`, the IC50 in the data set with Plasmodium falciparum [1] was 319 nM; with Plasmodium falciparum [2], 1390 nM. Also, the Activity entry in the data set with Vero was “Non-Toxic”. The figures for the selectivity ratio in data set [3] and in data set [4] were more than 7.6 and more than 33.5, respectively.

For the compound `Cc1cc(N2CCCCC2)nc(N(CCNc2ccnc3cc(Cl)ccc23)Cc2ccccn2)n1`, the values for the IC50 in the data set on Plasmodium falciparum [1] and in the data set on Plasmodium falciparum [2] were 1440 nM and 252 nM, respectively. Moreover, the Activity entry with Vero is “Non-Toxic”. For the same compound, the values for the selectivity ratio in data set [3] and in data set [4] were more than 38.6 and more than 6.8, respectively.

For the compound `CCN1CCN(c2nc(C)cc(N(CCNc3ccnc4cc(Cl)ccc34)Cc3ccccn3)n2)CC1`, the values for the IC50 in the data set on Plasmodium falciparum [1] and in the data set with Plasmodium falciparum [2] were 93 nM and 28 nM, respectively. For the same compound, the Activity entry in the data set on Vero is on record as “Non-Toxic”. For the same compound, the values for the selectivity ratio in data set [3] and in data set [4] were more than 326 and more than 98, respectively.

As for `Cc1cc(N2CCOCC2)nc(N(CCNc2ccnc3cc(Cl)ccc23)Cc2ccccn2)n1`, the figures for the IC50 in the data set with Plasmodium falciparum [1] and with Plasmodium falciparum [2] were 248 nM and 311 nM, respectively. Also, in the data set with Vero, the Activity entry is on record as “Non-Toxic”. Further, the selectivity ratio in data set [3] is more than 31.2; in data set [4] it was more than 39.1.

As to `Cc1cc(N(CCCNc2ccnc3cc(Cl)ccc23)Cc2ccccn2)nc(N2CCN(C)CC2)n1`, the IC50 amounted to 243 nM with Plasmodium falciparum [1] and 426 nM in the data set with Plasmodium falciparum [2]. Moreover, the Activity entry in the data set with Vero is “Non-Toxic”. The results for the selectivity ratio in data set [3] and in data set [4] were more than 21.6 and more than 37.8, respectively.

With `Cc1cc(N(CCCNc2ccnc3cc(Cl)ccc23)Cc2cccs2)nc(N2CCCC2)n1`, the figures for the IC50 with Plasmodium falciparum [1] and in the data set on Plasmodium falciparum [2] were 202 nM and 42 nM, respectively. For the same compound, the Activity result with Vero was “Non-Toxic”. The figures for the selectivity ratio in data set [3] and in data set [4] were more than 229 and more than 47.7, respectively.

Turning to `Clc1ccc2c(NCCCNCc3cccs3)ccnc2c1`, the IC50 in the data set with Plasmodium falciparum [1] was 75.1 nM; with Plasmodium falciparum [2] it was 424 nM. For the same compound, in the data set with Vero, the Activity result is reported as “Non-Toxic”. Further, the selectivity ratio in data set [3] is more than 33.8; in data set [4], more than 19.1.

`Cc1cc(N2CCN(C)CC2)nc(N(CCNc2ccnc3cc(Cl)ccc23)Cc2ccccn2)n1`: the figures for the IC50 in the data set on Plasmodium falciparum [1] and in the data set with Plasmodium falciparum [2] were 139 nM and 40 nM, respectively. Also, the Activity result in the data set with Vero is “Non-Toxic”. The selectivity ratio is more than 238 in data set [3] and more than 68 in data set [4].

Regarding `Cc1cc(N(CCNc2ccnc3cc(Cl)ccc23)Cc2ccccn2)nc(Cl)n1`, the half-inhibitory concentration (IC50) in the data set on Plasmodium falciparum [1] worked out at 492 nM; with Plasmodium falciparum [2], 233 nM. Besides, the Activity result in the data set on Vero was “Non-Toxic”. For the same compound, the selectivity ratio in data set [3] was more than 46.6; in data set [4] it was more than 22.

As to `Cc1cc(N2CCCC2)nc(N(CCCNc2ccnc3cc(Cl)ccc23)Cc2ccccn2)n1`, the IC50 in the data set on Plasmodium falciparum [1] amounted to 389 nM; in the data set with Plasmodium falciparum [2] it was 1040 nM. The Activity entry in the data set on Vero is “Non-Toxic”. The figures for the selectivity ratio in data set [3] and in data set [4] were more than 9.4 and more than 25.1, respectively.

Regarding `Cc1cc(N(CCNc2ccnc3cc(Cl)ccc23)Cc2ccccn2)nc(N2CCCCC2)n1`, the results for the IC50 in the data set on Plasmodium falciparum [1] and in the data set with Plasmodium falciparum [2] were 494 nM and 65 nM, respectively. Further, the Activity entry with Vero is recorded as “Non-Toxic”. The selectivity ratio in data set [3] was more than 151; in data set [4], more than 19.7.

In the case of `Cc1cc(N(CCNc2ccnc3cc(Cl)ccc23)Cc2ccccn2)nc(N2CCOCC2)n1`, the figures for the IC50 in the data set with Plasmodium falciparum [1] and with Plasmodium falciparum [2] were 526 nM and 152 nM, respectively. Further, the Activity entry with Vero is “Non-Toxic”. The figures for the selectivity ratio in data set [3] and in data set [4] were more than 64.2 and more than 18.5, respectively.

Source of the values: ChEMBL document CHEMBL4325903, “N-Substituted aminoquinoline-pyrimidine hybrids: Synthesis, in vitro antimalarial activity evaluation and docking studies” (Eur J Med Chem, 2019).
